1 compound from patent publication US5254801A, “Heterologous dominant conditional lethal gene which is a phosphonate monoester hydrolase and use thereof in plants” (Monsanto Company, priority 1990, dated 1993) can be followed below.

In data set [1] the test system is E. coli MM294, JM101, JM101/MPU+, SR200/MPU. As to the kind of experiment: In vivo (3-14C-) glyceryl glyphosate hydrolysis assay in whole cells. It is filed as cell-based. The settings on record: E. coli strains; three hour incubation, 30° C.
Data set [2] deals with PG2982. As to the kind of experiment: Growth on glyceryl glyphosate as sole phosphate source. It is filed as cell-based, Pseudomonas caryophilli. The settings on record: strain PG2982; 0.2 mM in DF minimal medium. Here is the method:
Bacteria capable of degrading glyphosate are known (Hallas et al., 1988; Malik et al., 1989; and Moore et al., 1983; Heitkamp et al., 1990). Five of these bacteria (PG2482, LBAA, T10, T12 and CP4) and four strains of E. coli were screened for the rapid degradation of glyceryl glyphosate into inorganic phosphate. The bacteria were inoculated into 2 ml Dworkin-Foster(DF) minimal medium containing glucose, sodium gluconate and potassium citrate (each 0.1%) as carbon source and containing 0.2 mM glyceryl glyphosate as a phosphate source. The Dworkin-Foster minimal medium was made by combining 1 liter sterile H2 O with 1 ml each of A, B, C, E and F, 10 ml D, C-sources to final concentration of 0.1% each and P-source to 0.2 mM.
Bacteria which grew in this medium using glyceryl glyphosate as a sole phosphate source had the ability to cleave both the ester and the phosphonate bond to release the free phosphate. For these bacteria to be useful in the present invention, the first step in the mineralization of glyceryl glyphosate needed is the hydrolysis of the phosphonate ester. […] After a three hour incubation period, the cells were pelleted in a microfuge and the supernatant injected onto an HPLC anion exchange column and glyphosate analyzed as described above. […] The pellet extract was then analyzed for glyphosate product as described above. […]

For another data set, the system named is PG2982 crude extract. As to the kind of experiment: In vitro radioactive hydrolysis assay in crude extracts. Type of data set: biochemical, Pseudomonas caryophilli. To be noted: strain PG2982. From the text:
The enzymatic reaction can be assayed using labelled (3-^14 C-) glyceryl glyphosate as a substrate and following the conversion to (3-^14 C-)glyphosate as a product using a high pressure liquid chromatography system with a radioactive detector. This assay is the most specific for the phosphonate monoester hydrolase enzymes useful for conditional cell lethality. An enzyme assay consists of 40,000 cpm of labelled (3-^14 C-) glyceryl glyphosate (obtained from NEN Biochemicals), the PEH sample in buffer and buffer to 100 μl final volume. The assay buffer is 10 mM Bis-Tris propane, pH 9.0, plus 100 mM KCl. The reaction is run for 1 hour at 30° C. and then stopped by the addition of 100 μl "quench" which is 100 mM sodium acetate, pH 5.5, in ethanol. […] The radioactivity of the peaks is measured and integrated by a post-column detector. […]
Bacteria which grew in this medium using glyceryl glyphosate as a sole phosphate source had the ability to cleave both the ester and the phosphonate bond to release the free phosphate. […] After a three hour incubation period, the cells were pelleted in a microfuge and the supernatant injected onto an HPLC anion exchange column and glyphosate analyzed as described above. […] The pellet extract was then analyzed for glyphosate product as described above. […]

Data set [3] deals with PG2982. Briefly: In vivo (3-14C-) glyceryl glyphosate hydrolysis assay in whole cells. It is filed as cell-based, Pseudomonas caryophilli. To be noted: strain PG2982; three hour incubation, 30° C. As to the method: Bacteria which grew in this medium using glyceryl glyphosate as a sole phosphate source had the ability to cleave both the ester and the phosphonate bond to release the free phosphate. For these bacteria to be useful in the present invention, the first step in the mineralization of glyceryl glyphosate needed is the hydrolysis of the phosphonate ester. Each of the three bacteria which utilized glyceryl glyphosate as a phosphate source were then assayed for a phosphonate monoester hydrolase activity using an in vivo (3-^14 C-) glyceryl glyphosate assay. A 150 ml culture of each bacteria was grown in DF minimal medium with 0.2 mM HK2 PO4 as a phosphate source in a 500 ml flask, 30° C., with shaking. The bacteria were pelleted by centrifugation at 5,000×g for 10 min and resuspended at 10 mg fresh weight/ml. An assay mix included 50 μl cells plus 10 μl (3-^14 C-) glyceryl glyphosate (10,000 cpm/μl) and kept at 30° C. with shaking. After a three hour incubation period, the cells were pelleted in a microfuge and the supernatant injected onto an HPLC anion exchange column and glyphosate analyzed as described above. The pellet was washed twice with 1 ml 10 mM HEPES, pH 7.0, and resuspended in 25 μl buffer. The cells were lysed with 25 μl quench and the debris pelleted in a microfuge. The pellet extract was then analyzed for glyphosate product as described above. […]

Data set [4] is described as follows: Storage stability of radioactive glyceryl glyphosate. It is filed as physicochemical. To be noted: radioactive compound stored at -20° C. over a period of 3 months.
For data set [5], the system named is pMON9443 transgenic Arabidopsis calli (pehA:2). Briefly: Callus viability on SIM medium with glyceryl glyphosate. It is filed as cell-based. As to the method:
(§1) Arabidopsis was cultured and transformed essentially as described by Valvekens et al., 1988. Arabidopsis ecotype RLD seeds were sterilized in 5% chlorox, 0.05%. Tween20 for 20 min, washed with sterile H2 O and plated on MSO medium (MS salts with minimal organics (Sigma), 0.5 g MES/l pH 5.7, 1% sucrose and 0.8% agar). After 3 weeks the roots were cut away from the shoots and precultured 3 days on callus inducing medium (CIM; Gamborg's B5 salts (Sigma), 2% glucose, 0.5 g/l MES, pH 5.7, 0.8% agar, 0.5 mg/l 2,4-D and 0.05 mg/l kinetin). The roots were than grouped in small bundles of 5-7 roots and cut into 0.5 cm pieces. The root pieces were mixed with a fresh overnight culture of ABI Agrobacterium containing a previously described plant gene expression vector diluted 1:20 in liquid MSO (without agar). After two minutes, the roots were transferred to fresh CIM plates for a two day co-culture. After co-culture, the root pieces were washed 2X with liquid MSO medium and plated on shoot inducing medium (SIM; Gamborg's B5 salts, 2% glucose, 0.5 g/l MES, pH 5.7, 5 mg/l N^6 -(2-isopentenyl)adenine, 0.15 mg/l indole-3-acetic acid, 500 mg/l carbenicillin, 100 mg/l kanamycin and 0.8% agar. Callus which continued to grow and remain green were transformed to fresh SIM after two weeks. As rosettes began to form, they were cut away from the callus and transferred to MSO medium with 1 mg/l indole-3-butyric acid in sterile sundae cups to initiate root formation. After the plants had formed roots they were transferred to soil and grown to maturity to obtain seed.
(§2) Arabidopsis calli transformed with either pMON9429 or pMON9443 which were expressing the selectable marker NPT-II gene as evidenced by growth on 100 μg/ml kanamycin were then evaluated for pehA expression. The calli were transferred to SIM medium containing 100 μg/ml kanamycin and 1 mM glyceryl glyphosate. After 4 weeks, calli were scored for growth and ability to initiate shoots and leaves (+) or for necrosis (-).

The test system of data set [6] is pMON9429 transgenic Arabidopsis calli (pehA:1). The description is as above. It is filed as cell-based. As to the method:
as §1, §2

Data set [7] has as its system GUS vector control Arabidopsis calli. The data set is described as above. It is filed as cell-based. Here is the method: as §1, §2
The mark [8] stands for this setting: 1 mM glyceryl glyphosate, 4 weeks, 6 lines scored.
Where [9] appears, read: 1 mM glyceryl glyphosate, 4 weeks, 12 lines scored.

Turning to `O=C(O)CNCP(=O)(O)OCC(O)CO` (centres unmarked) [glyceryl glyphosate, glycine, N-([hydroxy (2,3 dihydroxy propoxy)phosphonyl]methyl)], the “In vivo Hydrolysis of Glyceryl Glyphosate into Glyphosate” value in data set [1] is “No”; in the data set on PG2982 [3], “Yes”. The “Glyceryl Glyphosate as Phosphate Source” value in the data set on PG2982 [2] is “Yes”. Moreover, the “Hydrolysis of Glyceryl Glyphosate into Glyphosate in Crude Extracts” value in the data set on PG2982 crude extract was “Yes”. The Storage stability result in data set [4] is “unstable”. The “Viability Score: Growth” value was 0 number of lines in data set [5] (setting [8]), 1 number of lines in data set [6] (setting [8]) and 12 number of lines in data set [7] (setting [9]). In addition, the “Viability Score: Necrosis” value was 6 number of lines in data set [5] (setting [8]), 5 number of lines in data set [6] (setting [8]) and 0 number of lines in data set [7] (setting [9]). For the same compound, the “Callus phenotype on protoxin (in words)” value is listed as “lethality” in data set [5] (medium containing glyceryl glyphosate, pMON9443 calli) and “lethality” in data set [6] (medium containing glyceryl glyphosate, pMON9429 calli). The “Callus growth on protoxin (in words)” value in data set [7] (1 mM protoxin, control calli) is on record as “able to grow”.
